# Experimental data published in the supplement of paper PMC10307832.
# Columns and labels:
# Test in all cases: relative viability (nuclei count vs DMSO), 5 days (fraction); higher = more cells survive
# GSK-J4 = compound: CCOC(=O)CCNc1cc(N2CCc3ccccc3CC2)nc(-c2ccccn2)n1 [GSK-J4]
# Summary of the method: (§1)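 Following overnight incubation at 37 °C, lung cancer cell lines in 1536-well plates were pinned with five library-drug doses (not always all listed) in √10 steps on vehicle-anchored plates. The cells then spent 5 days without medium change before a combined fix, permeabilisation and Hoechst stain, 4× imaging and MetaXpress nuclear counts. Viability is the treated-to-vehicle ratio of nuclei, taken as the median across plates. Only plates with control CV below 25% and at least one doubling passed.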
# AZ3146 = compound: CN1CCC(CC1)OC2=CC(=C(C=C2)NC3=NC=C4C(=N3)N(C(=O)N4C)C5CCCC5)OC [AZ3146]
# Summary of the method: as §1
# GSK-J4 + Foretinib = compound: CCOC(=O)CCNc1cc(N2CCc3ccccc3CC2)nc(-c2ccccn2)n1 [GSK-J4] + COc1cc2c(Oc3ccc(NC(=O)C4(C(=O)Nc5ccc(F)cc5)CC4)cc3F)ccnc2cc1OCCCN1CCOCC1 [Foretinib] (partner 0.25 µM)
# Summary of the method: (§2)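 Five library-drug doses in √10 steps were combined with a fixed anchor-drug dose, or a single drug was given alone, by pin tool to lung cancer cell lines in 1536-well plates the day after seeding. Nuclei were stained and counted after 5 days. Relative viability is the nuclei count in treated wells over that in vehicle wells, taken as the median of duplicate plates.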
# GSK-J4 + Lapatinib = compound: CCOC(=O)CCNc1cc(N2CCc3ccccc3CC2)nc(-c2ccccn2)n1 [GSK-J4] + CS(=O)(=O)CCNCc1ccc(-c2ccc3ncnc(Nc4ccc(OCc5cccc(F)c5)c(Cl)c4)c3c2)o1 [Lapatinib] (partner 2 µM)
# Summary of the method: as §2
cell line,measurement,setting,value
UMC-11,relative viability,GSK-J4; 0.5 µM,0.96
same,relative viability,GSK-J4; 1.581 µM,0.735
same,relative viability,GSK-J4; 5 µM,0.741
same,relative viability,GSK-J4; 15.81 µM,1.01
same,relative viability,GSK-J4; 50 µM,0.551
same,relative viability,AZ3146; 0.08 µM,0.863
same,relative viability,AZ3146; 0.253 µM,0.985
same,relative viability,AZ3146; 0.8 µM,0.971
same,relative viability,AZ3146; 2.53 µM,0.898
same,relative viability,AZ3146; 8 µM,0.624
same,relative viability,GSK-J4 + Foretinib; first compound 0.5 µM,0.896
same,relative viability,GSK-J4 + Foretinib; first compound 5 µM,1.07
same,relative viability,GSK-J4 + Foretinib; first compound 15.81 µM,1.08
same,relative viability,GSK-J4 + Foretinib; first compound 50 µM,0.556
same,relative viability,GSK-J4 + Lapatinib; first compound 0.5 µM,1.07
same,relative viability,GSK-J4 + Lapatinib; first compound 1.581 µM,0.465
same,relative viability,GSK-J4 + Lapatinib; first compound 5 µM,0.611
same,relative viability,GSK-J4 + Lapatinib; first compound 15.81 µM,1.06
same,relative viability,GSK-J4 + Lapatinib; first compound 50 µM,0.808
